Laboratory results reported in US5290776A, “Azole derivatives” (Imperial Chemical Industries, PLC, priority 1991, dated 1994).

How the values were obtained:
[1] = system: vasodilation response during twitch contraction of skeletal muscle; test: Anaesthetised cat exercise hyperaemia test; format: in vivo; conditions: 10 mg.kg^-1
Protocol: (f) Anaesthetised cat exercise hyperaemia test
This test involves assessment of the effect of a test compound to antagonise the vasodilation response which occurs during twitch contraction of skeletal muscle. The vasodilation is mediated partly by the release of endogenous adenosine from the contracting skeletal muscle.
Cats (2.4-3.6 kg) are anaesthetised with sodium pentobarbitone (50 mg.kg^-1 ip). The following blood vessels are catheterized: left jugular vein (for infusion of anaesthetic, at approximately […] as a 6 mg.ml^-1 solution in isotonic saline), right external jugular vein (for administration of drugs and test compounds), right common carotid artery (for measurement of systemic arterial blood pressure and pulse rate) and right brachial artery (for withdrawal of blood).
Blood flow to the left hind limb is measured with an electromagnetic flow probe around the left external iliac artery. The whole of the left hind limb is made to contract at 3 Hz for 20 minutes duration by stimulating the sciatic and femoral nerves. Active tension produced by the extensor digitorum longus and peroneous longus muscles is measured isometrically with a force transducer. Exercise is repeated twice within the same animal, in either the absence or presence of the test compound. Test compounds are assessed for their ability to reduce the vasodilation during skeletal muscle contraction.

[2] = system: adenosine receptor known as A2; test: Guinea-pig Aortic Constriction Test; format: cell-based; conditions: antagonism of adenosine attenuation of phenylephrine induced constriction, guinea-pig aortic ring
From the text: (b) Guinea-pig Aortic Constriction Test
This test has been described by Collis et al. (British J. Pharmacology, 1989, 97, 1274-1278) and involves the assessment of the ability of a test compound to antagonise the attenuatory effect of adenosine on phenylephrine induced constriction of a guinea-pig aortic ring preparation, an effect mediated via the adenosine receptor known as A2.
The aortic ring preparation is obtained as follows:
Sections (3-5 mm) of guinea pig thoracic aorta (from Dunkin Hartley strain, 250-400 g males) are mounted in organ baths containing oxygenated Krebs solution (95% O2 : 5% CO2) at 37° C. [The nucleoside transport inhibitor, dipyridamole (10 μM) is present in the Krebs solution]. The isometric tension development is recorded and the tissue placed under a resting tension of 1 g and allowed to equilibrate for 1 hour. […] Adenosine is next added cumulatively (10^-7 M to 10^-3 M) and the evoked relaxation is measured. […]
Test compounds are assessed by plotting the percentage relaxation observed against the logarithm of the adenosine concentration, competitive adenosine antagonism producing a parallel shift in the standard adenosine concentration/relaxation (dose response) curve. […] The pA2 value, which is an estimate of the concentration of antagonist to give a dose ratio of 2, may also be calculated using a standard computation technique.

[3] = target: T1, adenosine receptor known as A1 (Cavia porcellus, UniProt P47745); test: Guinea-pig Atrial Bradycardic Test; format: cell-based; conditions: antagonism of bradycardic effect of 2-chloroadenosine, beating guinea-pig atrial preparation; read-out: pA2 (converted)
T1 construct: Atrial pairs are obtained from guinea-pigs; from tissue; host or cells: guinea-pig atrial pairs (Dunkin Hartley)
T1 sequence (P47745 1-326): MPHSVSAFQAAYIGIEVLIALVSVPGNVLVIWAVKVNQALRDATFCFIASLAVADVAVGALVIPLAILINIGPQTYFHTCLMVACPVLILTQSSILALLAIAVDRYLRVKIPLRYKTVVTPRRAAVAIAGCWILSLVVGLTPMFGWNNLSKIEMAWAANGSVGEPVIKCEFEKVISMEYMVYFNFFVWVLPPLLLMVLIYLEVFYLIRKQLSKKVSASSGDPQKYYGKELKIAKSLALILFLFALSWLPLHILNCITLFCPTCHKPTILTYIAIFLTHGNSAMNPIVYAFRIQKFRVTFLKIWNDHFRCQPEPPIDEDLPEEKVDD
Protocol: (c) Guinea-pig Atrial Bradycardic Test
The spontaneously beating atria are then placed under a resting tension of 1 g and allowed to equilibrate for 50 minutes with continuous overflow. Overflow is then stopped and adenosine deaminase (1 Unit/ml) added to prevent the accumulation of endogenously produced adenosine. […] After washout during 30 minutes, adenosine deaminase is readministered to the bath which is allowed to equilibrate for 15 minutes. A 10^-5 M solution of the test compound in DMSO is then added to the bath which is left to incubate for 30 minutes. Any effect on the beating rate due to the test compound is noted before the dose response curve to 2-chloroadenosine is repeated. Compounds which are adenosine antagonists attenuate the 2-chloroadenosine response.
Test compounds are assessed by comparing dose response curves to 2-chloroadenosine alone with those obtained in the presence of the compound. Competitive adenosine antagonists produce a parallel shift in the 2-chloroadenosine dose response curve. […] The pA2 is then obtained in an analogous manner to that referred to in (b) above.

A2 Adenosine receptor = target: T2, A2 Adenosine receptor (Rattus norvegicus, UniProt P30543); test: A2 Adenosine receptor affinity test ([3H]-NECA displacement, PC12 membranes); format: binding; conditions: displacement of [3H]-NECA from rat PC12 cell membranes
T2 construct: membrane preparations derived from the rat phaeochromocytoma cell line PC 12; host or cells: PC 12 (rat phaeochromocytoma), membranes
T2 sequence (P30543 whole entry): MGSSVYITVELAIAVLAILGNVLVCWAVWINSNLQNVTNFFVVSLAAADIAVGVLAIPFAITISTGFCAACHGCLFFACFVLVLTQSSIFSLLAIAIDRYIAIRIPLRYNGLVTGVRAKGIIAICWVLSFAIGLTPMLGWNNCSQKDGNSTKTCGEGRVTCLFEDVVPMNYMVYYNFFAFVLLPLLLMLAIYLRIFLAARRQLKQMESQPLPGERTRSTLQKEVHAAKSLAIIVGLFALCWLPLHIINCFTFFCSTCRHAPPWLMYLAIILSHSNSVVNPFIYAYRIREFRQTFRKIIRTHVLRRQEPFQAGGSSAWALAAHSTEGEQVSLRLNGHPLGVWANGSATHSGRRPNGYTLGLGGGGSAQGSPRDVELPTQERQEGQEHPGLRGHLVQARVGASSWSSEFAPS
Protocol: The membrane preparation is obtained as follows: Frozen pellets of PC12 cells are washed twice with ice cold, buffered, physiological saline and the cells recovered by centrifugation (1500 G) at 3° C. The separated cells are then suspended in hypotonic solution (distilled water), allowed to stand on ice for 30 minutes and are then carefully homogenized using a standard high-speed homogeniser with periodic ice-cooling to obtain a fine suspension. […] The mixture is then incubated at 37° C. After 20 minutes, the reaction is terminated by dilution with ice-cold buffer and transfer onto ice. The material obtained containing the cell membranes is recovered by centrifugation and washed by resuspension in buffer and recentrifugation. The pellet produced is then resuspended in ice-cold buffer using a hand-driven homogenizer. The resultant membrane suspension is frozen and stored under liquid nitrogen until required.
After incubation, the samples are rapidly filtered over glass-fibre mats and the filter mats are washed to remove non-receptor-bound radioligand. Receptor-bound radioligand entrapped on the filter mats is then determined by liquid scintillation counting. […] The specific binding (defined as the difference between the total binding and the non-specific binding) in the presence of the particular test compound is determined and compared with the control value.

| Kb [3] [nM] | IC50 (A2 Adenosine receptor) [nM] | SMILES | inhibition of vasodilation during skeletal muscle contraction [1] | pA2 [2] |
| --- | --- | --- | --- | --- |
|  |  | Cn1c(=O)c2[nH]cnc2n(C)c1=O [1,3-dimethylxanthine] | significant inhibition | about 5 |
| 39.8 | ~25.1 | Nc1nc(-c2ccccc2)nc2nc(-c3ccco3)nn12 [Example 1, 7-amino-2-(2-furyl)-5-phenyl-[1,2,4]-triazolo[1,5-a][1,3,5]triazine] |  |  |
